Measured values: US10370642B2, “Hematopoietic progenitor cell populations having affinity for E-selectin / L-selectin” (priority 2000, dated 2019)

Legend:
Format in all cases: cell-based, human
KG1a cells [1] = assay: L-selectin ligand activity of treated KG1a cells, parallel-plate flow chamber; conditions: thoracic duct lymphocytes, shear stress 4.4 dynes/cm^2
Method: Leukocyte tethering and rolling on human HC monolayers was visualized by video microscopy in real time using the parallel-plate flow chamber prepared in the following manner. Prior to experimentation, leukocytes were washed twice in HBSS and then suspended at 10^7/ml in HBSS/10 mM HEPES/2mMCaCl2 (H/H/Ca^++). […] To prepare human HC monolayers (100% confluent), suspensions of HCs (KG 1a, HL60, RPMI 8402, K562) at 2×10^6/ml RPMI-1640 without Na+Bicarbonate/2% FBS were seeded in 6-well plates at 5×10^6/well, centrifuged to layer cells then fixed in 3% glutaraldehyde. Reactive aldehyde groups were blocked in 0.2M lysine, and plated cells were suspended H/H/Ca^++. To assess the dependence of binding by sialic acid residues on L-selectin ligands, cells were pretreated with Vibrio cholerae neuraminidase (0.1 U/mlH/H/Ca^++ for lhr at 37° C.). To examine the contribution of sialomucins (including PSGL-1) and PSGL-1 alone, OSGE (60 μg/ml H/H/Ca^++ for lhr at 37° C.) or mocarhagin (10 μg/ml for 20 min at 37° C.) treatments were performed, respectively. […] The number of leukocytes rolling in one frame of five independent fields under 200× magnification at shear stress of 0.2, 0.4, 0.8, 2.2, 4.4, 8.8, 17.6 and 26.4 dynes/cm^2 were quantified. A minimum of 3 experiments was performed over the entire range of shear stress and results were expressed as the mean±standard deviation.

KG1a cells [2] = assay: CHO-E cell rolling on glutaraldehyde-fixed KG1a monolayers; conditions: 2.8 dynes/cm^2; EDTA 5 mM; HECA 452 50 μg/ml
Excerpt: (§1) E-selectin-mediated adhesive interactions, under defined shear stress, were examined between hematopoietic cell monolayers and suspensions of CHO-E (Chinese hamster ovary cells stably transfected with full-length cDNA encoding human E-selectin) in flow. CHO-E and empty vector constructs (CHO-Mock) were maintained in MEM 10% FBS/1% Penicillin/Streptomycin (Life Technologies, Inc.) and HAM's F-12 (Cellgro, Inc.)/5% FCS/1% Penicillin/Streptomycin, respectively. CHO-E cell tethering and rolling on hematopoietic cell monolayers was visualized by video microscopy in real time using the parallel-plate flow chamber. […] To prepare hematopoietic cell monolayers>90% confluent, suspensions of cells (KG1a, HL60, K562, or RPMI 8402) at 2×10^6/ml RPMI1640 without NaBicarbonate/2% FBS were cytocentrifuged in […] plates at 5×10^6/well and then fixed in 3% glutaraldehyde. Reactive aldehyde groups were blocked in 0.2M lysine, and plated cells were suspended H/H/Ca++. […] The number of CHO-E/Mock cell rolling on each monolayer was measured in one frame of five independent fields under 10× magnification from multiple experiments. A minimum of 3 experiments was performed and results were expressed as the mean±standard deviation.

HL60 cells = assay: CHO-E cell rolling on glutaraldehyde-fixed HL60 monolayers; conditions: 2.8 dynes/cm^2; EDTA 5 mM; HECA 452 50 μg/ml
Excerpt: as §1

## neuraminidase: Vibrio cholerae neuraminidase, cleaves terminal sialic acids
KG1a cells [1]
  % Control Mean Lymphocyte Binding: 0.3 % Control
KG1a cells [2]
  CHO-E cell rolling / E-selectin ligand activity of KG1a cells: completely inhibited
HL60 cells
  CHO-E cell rolling / E-selectin ligand activity of HL60 cells: completely inhibited
